From ChEMBL document CHEMBL2074500 (Drug Metab Dispos, 1999)
One block for each molecule: values may come before it.

What was measured:
[1] = biological target: T1, Solute carrier organic anion transporter family member 1A2 (Homo sapiens, UniProt P46721); assay: TP_TRANSPORTER: inhibition of Fexofenadine uptake (Fexofenadine: 2 uM, Saquinavir: 100 uM) in Xenopus laevis oocytes; type: functional, cell-based; set-up: scale not given: the % may be the effect or the level left; conditions: oocyte
T1 sequence (P46721 whole entry): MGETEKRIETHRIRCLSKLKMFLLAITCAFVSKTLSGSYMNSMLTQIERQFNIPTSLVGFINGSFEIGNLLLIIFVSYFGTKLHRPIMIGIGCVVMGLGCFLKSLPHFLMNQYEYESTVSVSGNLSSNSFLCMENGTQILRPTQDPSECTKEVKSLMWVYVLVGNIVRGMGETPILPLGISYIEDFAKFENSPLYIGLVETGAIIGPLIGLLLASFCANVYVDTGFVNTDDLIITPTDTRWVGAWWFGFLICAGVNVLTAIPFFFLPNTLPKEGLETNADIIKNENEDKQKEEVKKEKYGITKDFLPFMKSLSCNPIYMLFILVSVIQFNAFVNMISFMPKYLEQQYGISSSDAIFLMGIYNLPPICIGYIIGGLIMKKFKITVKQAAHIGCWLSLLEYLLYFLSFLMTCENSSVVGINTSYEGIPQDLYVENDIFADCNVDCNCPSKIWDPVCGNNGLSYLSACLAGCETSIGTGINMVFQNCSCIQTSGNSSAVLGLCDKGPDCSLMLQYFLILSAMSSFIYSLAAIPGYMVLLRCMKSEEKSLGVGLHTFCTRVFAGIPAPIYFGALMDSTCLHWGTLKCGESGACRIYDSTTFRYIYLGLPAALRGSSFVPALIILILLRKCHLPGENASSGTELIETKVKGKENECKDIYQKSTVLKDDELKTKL

[2] = biological target: T1, Solute carrier organic anion transporter family member 1A2; assay: TP_TRANSPORTER: inhibition of Fexofenadine uptake (Fexofenadine: 2 uM, Indinavir: 100 uM) in Xenopus laevis oocytes; type: functional, cell-based; set-up: scale not given: the % may be the effect or the level left; conditions: oocyte
[3] = biological target: T1, Solute carrier organic anion transporter family member 1A2; assay: TP_TRANSPORTER: inhibition of Fexofenadine uptake (Fexofenadine: 2 uM, Nelfinavir: 100 uM) in Xenopus laevis oocytes; type: functional, cell-based; set-up: scale not given: the % may be the effect or the level left; conditions: oocyte
[4] = biological target: T1, Solute carrier organic anion transporter family member 1A2; assay: TP_TRANSPORTER: inhibition of Fexofenadine uptake (Fexofenadine: 2 uM, Verapamil: 100 uM) in Xenopus laevis oocytes; type: functional, cell-based, Oocyte; conditions: probe Fexofenadine
[5] = biological target: T1, Solute carrier organic anion transporter family member 1A2; assay: TP_TRANSPORTER: inhibition of Fexofenadine uptake (Fexofenadine: 2 uM, Erythromycin: 100 uM) in Xenopus laevis oocytes; type: functional, cell-based; set-up: scale not given: the % may be the effect or the level left; conditions: oocyte
[6] = biological target: T2, ATP-dependent translocase ABCB1 (Mus musculus, UniProt P21447); assay: TP_TRANSPORTER: increase in heart concentration in mdr1a(-/-) mouse; type: functional, organism-based; conditions: in vivo
T2 sequence (P21447 whole entry): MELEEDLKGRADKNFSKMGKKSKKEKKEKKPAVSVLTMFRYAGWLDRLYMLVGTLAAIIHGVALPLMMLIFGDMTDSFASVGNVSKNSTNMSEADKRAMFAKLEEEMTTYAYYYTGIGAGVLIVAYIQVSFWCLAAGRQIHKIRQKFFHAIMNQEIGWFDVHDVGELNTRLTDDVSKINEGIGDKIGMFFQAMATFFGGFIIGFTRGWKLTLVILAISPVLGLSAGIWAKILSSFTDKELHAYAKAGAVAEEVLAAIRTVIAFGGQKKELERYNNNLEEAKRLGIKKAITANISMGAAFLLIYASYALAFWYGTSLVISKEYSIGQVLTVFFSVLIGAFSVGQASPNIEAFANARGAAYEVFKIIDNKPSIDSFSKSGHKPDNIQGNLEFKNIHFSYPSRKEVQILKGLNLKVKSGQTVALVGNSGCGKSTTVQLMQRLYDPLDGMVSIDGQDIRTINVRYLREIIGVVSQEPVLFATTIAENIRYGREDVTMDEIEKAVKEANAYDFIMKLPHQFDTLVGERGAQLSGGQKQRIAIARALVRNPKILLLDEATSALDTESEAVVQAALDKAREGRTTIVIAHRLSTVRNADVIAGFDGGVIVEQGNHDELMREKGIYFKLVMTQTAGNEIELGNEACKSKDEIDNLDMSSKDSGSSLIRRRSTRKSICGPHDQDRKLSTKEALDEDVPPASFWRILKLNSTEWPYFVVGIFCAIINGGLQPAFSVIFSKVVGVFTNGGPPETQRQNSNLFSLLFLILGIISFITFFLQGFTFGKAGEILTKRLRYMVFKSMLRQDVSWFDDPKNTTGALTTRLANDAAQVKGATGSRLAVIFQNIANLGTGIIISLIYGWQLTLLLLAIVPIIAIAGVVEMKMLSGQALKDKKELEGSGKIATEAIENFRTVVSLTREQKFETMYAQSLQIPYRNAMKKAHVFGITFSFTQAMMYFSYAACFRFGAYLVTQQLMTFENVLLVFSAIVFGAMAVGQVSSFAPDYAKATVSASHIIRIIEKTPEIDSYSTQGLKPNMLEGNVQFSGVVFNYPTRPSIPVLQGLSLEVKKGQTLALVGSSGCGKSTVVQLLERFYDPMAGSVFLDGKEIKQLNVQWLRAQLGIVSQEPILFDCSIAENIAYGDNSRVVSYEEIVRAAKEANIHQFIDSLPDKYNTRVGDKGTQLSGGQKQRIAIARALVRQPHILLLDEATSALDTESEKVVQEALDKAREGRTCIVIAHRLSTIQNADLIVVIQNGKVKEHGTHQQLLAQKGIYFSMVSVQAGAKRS

[7] = biological target: T2, ATP-dependent translocase ABCB1; assay: TP_TRANSPORTER: increase in liver concentration in mdr1a(-/-) mouse; type: functional, organism-based; conditions: in vivo
[8] = biological target: T2, ATP-dependent translocase ABCB1; assay: TP_TRANSPORTER: increase in kidney concentration in mdr1a(-/-) mouse; type: functional, organism-based; conditions: in vivo
[9] = biological target: T2, ATP-dependent translocase ABCB1; assay: TP_TRANSPORTER: increase in spleen concentration in mdr1a(-/-) mouse; type: functional, organism-based; conditions: in vivo
[10] = biological target: T2, ATP-dependent translocase ABCB1; assay: TP_TRANSPORTER: increase in plasma concentration in mdr1a(-/-) mouse; type: functional, organism-based; conditions: in vivo
[11] = biological target: T2, ATP-dependent translocase ABCB1; assay: TP_TRANSPORTER: increase in small intestine concentration in mdr1a(-/-) mouse; type: functional, organism-based; conditions: in vivo
[12] = biological target: T1, Solute carrier organic anion transporter family member 1A2; assay: TP_TRANSPORTER: inhibition of Fexofenadine uptake (Fexofenadine: 2 uM, Ketoconazole: 100 uM) in Xenopus laevis oocytes; type: functional, cell-based; set-up: scale not given: the % may be the effect or the level left; conditions: oocyte
[13] = biological target: T1, Solute carrier organic anion transporter family member 1A2; assay: TP_TRANSPORTER: inhibition of Fexofenadine uptake (Fexofenadine: 2 uM, Lovastatin: 100 uM) in Xenopus laevis oocytes; type: functional, cell-based, Oocyte; conditions: probe Fexofenadine
[14] = biological target: T1, Solute carrier organic anion transporter family member 1A2; assay: TP_TRANSPORTER: inhibition of Fexofenadine uptake (Fexofenadine: 2 uM, Quinidine: 100 uM) in Xenopus laevis oocytes; type: functional, cell-based, Oocyte; conditions: probe Fexofenadine, read-out: Activity
[15] = biological target: T1, Solute carrier organic anion transporter family member 1A2; assay: TP_TRANSPORTER: inhibition of Fexofenadine uptake (Fexofenadine: 2 uM, PSC-833: 100 uM) in Xenopus laevis oocytes; type: functional, cell-based, Oocyte; conditions: probe Fexofenadine
[16] = substrate: CC(C)(C(=O)O)c1ccc(C(O)CCCN2CCC(C(O)(c3ccccc3)c3ccccc3)CC2)cc1; assay: TP_TRANSPORTER: uptake in Oatp2-expressing HeLa cells; type: functional, cell-based

inhibition at 100 µM [13]: 95%
Molecule: CC[C@H](C)C(=O)O[C@H]1C[C@@H](C)C=C2C=C[C@H](C)[C@H](CC[C@@H]3C[C@@H](O)CC(=O)O3)[C@H]21 [LOVASTATIN]

inhibition at 100 µM [14]: 91%
Molecule: C=C[C@H]1C[N@@]2CC[C@H]1C[C@@H]2[C@@H](O)c1ccnc2ccc(OC)cc12 [QUINIDINE]

inhibition at 100 µM [15]: 85%
Molecule: C/C=C/C[C@@H](C)C(=O)[C@H]1C(=O)N[C@@H](C(C)C)C(=O)N(C)CC(=O)N(C)[C@@H](CC(C)C)C(=O)N[C@@H](C(C)C)C(=O)N(C)[C@@H](CC(C)C)C(=O)N[C@@H](C)C(=O)N[C@H](C)C(=O)N(C)[C@@H](CC(C)C)C(=O)N(C)[C@@H](CC(C)C)C(=O)N(C)[C@@H](C(C)C)C(=O)N1C [VALSPODAR]

The next lines start with the molecule.

Molecule: CC(C)(C)NC(=O)[C@@H]1C[C@@H]2CCCC[C@@H]2CN1C[C@@H](O)[C@H](Cc1ccccc1)NC(=O)[C@H](CC(N)=O)NC(=O)c1ccc2ccccc2n1
Activity [1]: 105%

Molecule: CC(C)(C)NC(=O)[C@@H]1CN(Cc2cccnc2)CCN1C[C@@H](O)C[C@@H](Cc1ccccc1)C(=O)N[C@H]1c2ccccc2C[C@H]1O.O
Activity [2]: 70%

Molecule: Cc1c(O)cccc1C(=O)N[C@@H](CSc1ccccc1)[C@H](O)CN1C[C@H]2CCCC[C@H]2C[C@H]1C(=O)NC(C)(C)C
Activity [3]: 81%

Molecule: COc1ccc(CCN(C)CCCC(C#N)(c2ccc(OC)c(OC)c2)C(C)C)cc1OC (stereo unspecified)
inhibition at 100 µM [4]: 100%

Molecule: CC[C@H]1OC(=O)[C@H](C)[C@@H](O[C@H]2C[C@@](C)(OC)[C@@H](O)[C@H](C)O2)[C@H](C)[C@@H](O[C@@H]2O[C@H](C)C[C@H](N(C)C)[C@H]2O)[C@](C)(O)C[C@@H](C)C(=O)[C@H](C)[C@@H](O)[C@]1(C)O [ERYTHROMYCIN]
Activity [5]: 66%

Molecule: CC(C)(C(=O)O)c1ccc(C(O)CCCN2CCC(C(O)(c3ccccc3)c3ccccc3)CC2)cc1 (stereo unspecified) [FEXOFENADINE]
Activity [6]: substrate [+]
Activity [7]: substrate [+]
Activity [8]: substrate [+]
Activity [9]: substrate [+]
Activity [10]: substrate [+]
Activity [11]: substrate [+]

Molecule: CC(=O)N1CCN(c2ccc(OCC3COC(Cn4ccnc4)(c4ccc(Cl)cc4Cl)O3)cc2)CC1 (stereo unspecified) [KETOCONAZOLE]
Activity [12]: 107%

B1: Solute carrier organic anion transporter family member 1A4 (Rattus norvegicus) (protein)
chain: MGKSEKRVATHGVRCFAKIKMFLLALTCAYVSKSLSGTYMNSMLTQIERQFGIPTSIVGLINGSFEIGNLLLIIFVSYFGTKLHRPIMIGVGCAVMGLGCFLISLPHFLMGQYEYETILPTSNVSSNSFFCVENRSQTLNPTQDPSECVKEMKSLMWIYVLVGNIIRGIGETPIMPLGISYIEDFAKSENSPLYIGILETGMTIGPLIGLLLASSCANIYVDIESVNTDDLTITPTDTRWVGAWWIGFLVCAGVNILTSFPFFFFPKTLPKEGLQENVDGTENAKEKKHRKKAKEEKRGITKDFFVFMKSLSCNPIYMLFILISVLQFNAFINSFTFMPKYLEQQYGKSTAEVVFLMGLYMLPPICLGYLIGGLIMKKFKVTVKKAAHLAFWLCLSEYLLSFLSYVMTCDNFPVAGLTTSYEGVQHQLYVENKVLADCNTRCNCSTNTWDPVCGDNGLAYMSACLAGCEKSVGTGTNMVFQNCSCIQSSGNSSAVLGLCNKGPDCANKLQYFLIIAIFGCFIYSLAGIPGYMVLLRCIKSEEKSLGVGLHAFCIRILAGIPAPIYFGALIDRTCLHWGTLKCGEPGACRMYDINSFRRLYLGLPAALRGASFVPAFFILRLTRTFQFPGDIESSKTDHAEMKLTLKESECTEVLRSKVTED
Km [16]: 6 µM
